Test results from US12678430B2, “Compositions and methods for the treatment of liver disorders” (Viking Therapeutics, Inc., priority 2020, dated 2026).

Assays:
diet-induced NASH mice [1] = test: Example 7: diet-induced (GAN diet) NASH mice, Compound 2, FXR agonists and combinations; format: in vivo; details: for blood glucose level compared to vehicle: FIG. 6; for liver TG levels at the termination of the study: FIG. 8; for plasma triglyceride (TG) levels: as early as seven days, FIG. 7; for relative terminal body weight compared to vehicle: study day 21, FIG. 5; for plasma TG levels compared to vehicle: day 21, FIG. 11; for total liver triglycerides compared to tropifexor: day 21, FIG. 12; for plasma insulin level, significance compared to vehicle / plasma insulin levels compared to vehicle alone and to Compound 2: study day 21, FIG. 9; for plasma ALT level compared to vehicle alone / plasma ALT levels compared to tropifexor: study day 21, FIG. 10
Procedure: NASH was induced in mice by feeding mice a Gubra amylin NASH (GAN) diet as described in Boland et al. World J Gastroenterol. 2019, 25(33): 4904-4920. One week prior to administration of a first dose of compounds, the mice were weighed and randomized, and their food intake was measured. Mice were randomly assigned to dosing groups, with 12 mice per group. Assigned dosages included the following; Compound 2 (10 mg/kg); tropifexor (0.3 mg/kg); Compound 2 (10 mg/kg)+tropifexor (0.3 mg/kg); Compound II-1 (10 mg/kg); Compound 2 (10 mg/kg)+Compound II-1 (30 mg/kg); Compound II-2 (10 mg/kg); and Compound 2 (10 mg/kg)+Compound II-2 (30 mg/kg). One group was mock treated with vehicle only as a control. Dosage of Compound II-1 and Compound II-2 were titrated over 6 days, with a dosage of 3 mg/kg administered on days 0, 1 and 2 and a dosage of 10 mg/kg administered on days 3, 4, and 5. Absolute and relative body weight of the mice were recorded daily.
(§1) Fed blood glucose and fed plasma levels of alanine transaminase (ALT) aspartate transaminase (AST), triglycerides (TG), and total cholesterol (TC) were measured at days 7, 14, 21.
(§2) After 3 weeks, animals were sacrificed. Plasma enzymes (P-ALT (alanine aminotransferase) and P-AST (aspartate aminotransferase)), total plasma triglycerides, and total plasma cholesterol were measured, and terminal necropsy of each liver was carried out, determining relative liver weight as a percentage of body weight, assaying total liver biochemistry including total liver triglycerides, plasma insulin and total liver cholesterol, as well as histological evaluation of total liver hydroxyproline, and steatosis. Tissue samples were preserved for characterization using RNAseq.

FXR receptor = target: T1, FXR receptor (Homo sapiens, UniProt Q96RI1); test: In vitro FXR activity, PathHunter enzyme fragment complementation assay in CHO cells; format: cell-based; details: for EC50: CHO PathHunter cells, ten-point dose curve, chemiluminescence; for Emax: CHO, read-out: Max Response (%)
T1 construct: beta-galactosidase enzyme fragment (EFC/PathHunter); expressed in transfected cells; host or cells: Chinese Hamster Ovary (CHO) cells, stably transfected, clonally derived
T1 sequence (Q96RI1 1-486): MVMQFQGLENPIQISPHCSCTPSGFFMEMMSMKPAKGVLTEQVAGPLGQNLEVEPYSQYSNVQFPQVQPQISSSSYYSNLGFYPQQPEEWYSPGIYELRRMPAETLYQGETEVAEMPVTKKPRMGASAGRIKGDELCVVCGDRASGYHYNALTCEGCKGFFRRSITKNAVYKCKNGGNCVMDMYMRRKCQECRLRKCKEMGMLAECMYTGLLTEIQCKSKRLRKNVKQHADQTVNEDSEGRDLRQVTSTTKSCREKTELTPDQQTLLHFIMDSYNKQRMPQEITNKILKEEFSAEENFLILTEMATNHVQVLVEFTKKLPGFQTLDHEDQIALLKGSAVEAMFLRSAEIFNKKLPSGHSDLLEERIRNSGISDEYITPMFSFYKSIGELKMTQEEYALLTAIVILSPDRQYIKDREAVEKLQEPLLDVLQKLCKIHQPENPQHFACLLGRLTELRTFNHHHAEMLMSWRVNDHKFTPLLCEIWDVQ
Procedure: Cells were seeded in cell plating reagent in a total volume of 20 μL into 384-well microplates and incubated at 37° C., 5% CO2 humidified incubator for 24 or 48 hours prior to testing. FXR agonists were dissolved in DMSO (dimethyl sulfoxide). Ligands were subsequently diluted in the cell plating reagent to make up desired concentration stock solution. Ten-point dose curve serial dilutions were prepared in cell plating reagent. 5 μL of 5× sample was added to cells and incubated at 37° C. or room temperature for 3-16 hours. Final assay vehicle concentration was 1%. Chemiluminescent signals were generated through addition of 12.5 μL or 15 μL of detection reagent cocktail ([…]), followed by incubation at room temperature for 1 hour. Microplates were read for signal generation using a PerkinElmer Envision instrument to detect chemiluminescence. The percentage activity was calculated using the following formula: % Activity=100%×(mean RLU of test sample−mean RLU of vehicle control)/(mean MAX control ligand−mean RLU of vehicle control).

diet-induced NASH mice [2] = test: Example 6: diet-induced (GAN diet) NASH mice, FXR agonists alone; format: in vivo; details: 10 mg/kg; for blood glucose level compared to vehicle: FIG. 2; for plasma triglyceride (TG) levels compared to vehicle: as early as seven days, FIG. 3; for total liver triglycerides: over the course of the study, FIG. 4; for relative terminal body weight compared to vehicle: study day 21, FIG. 1; for liver TG lowering compared to tropifexor: II-1 p<0.05, II-2 p<0.01
Procedure: NASH was induced in mice by feeding mice a Gubra amylin NASH (GAN) diet as described in Boland et al. World J Gastroenterol. 2019, 25(33): 4904-4920. One week prior to administration of a first dose of compounds, the mice were weighed and randomized, and their food intake was measured. Mice were randomly assigned to dosing groups, with 12 mice per group. Assigned dosages were: Compound II-1 (10 mg/kg); Compound II-2 (10 mg/kg) One group was mock treated with vehicle only as a control. Dosage of Compound II-1 and Compound II-2 were titrated over 3 days, with a dosage of 3 mg/kg administered on days 0, 1 and 2. Dosage of tropifexor was titrated over 2 days, with a dosage of 0.1 mg/kg administered on days 0 and 1. Absolute and relative body weight of the mice were recorded daily.
as §1
as §2, with “8” for “3”

[3] = % Activity relative to MAX control ligand

Row | SMILES | blood glucose level compared to vehicle (diet-induced NASH mice [1]) | liver TG levels at the termination of the study (diet-induced NASH mice [1]) | plasma triglyceride (TG) levels (diet-induced NASH mice [1]) | relative terminal body weight compared to vehicle (diet-induced NASH mice [1]) | EC50 (FXR receptor) | Emax (FXR receptor; [3]) | plasma TG levels compared to vehicle (diet-induced NASH mice [1]) | total liver triglycerides compared to tropifexor (diet-induced NASH mice [1]) | plasma insulin level, significance compared to vehicle (diet-induced NASH mice [1]) | plasma insulin levels compared to vehicle alone and to Compound 2 (diet-induced NASH mice [1]) | plasma ALT level compared to vehicle alone (diet-induced NASH mice [1]) | plasma ALT levels compared to tropifexor (diet-induced NASH mice [1]) | blood glucose level compared to vehicle (diet-induced NASH mice [2]) | plasma triglyceride (TG) levels compared to vehicle (diet-induced NASH mice [2]) | total liver triglycerides (diet-induced NASH mice [2]) | relative terminal body weight compared to vehicle (diet-induced NASH mice [2]) | liver TG lowering compared to tropifexor (diet-induced NASH mice [2]) | Max Response (%) (FXR receptor; [3]) | plasma TG lowering compared to tropifexor (diet-induced NASH mice [2]; p<0.05)
1 | Cc1cc(OCP2(=O)OCC[C@@H](c3cccc(Cl)c3)O2)cc(C)c1Cc1ccc(O)c(C(C)C)c1 (stereo partly drawn) [Compound 2] | lower blood glucose level | lowered liver TG levels | significantly reduced | lower relative terminal body weight |  |  |  |  |  |  |  |  |  |  |  |  |  |  | 
2 | O=P(O)(O)c1cc(F)c2nc(N3[C@@H]4CC[C@H]3CC(OCc3c(-c5ccccc5OC(F)(F)F)noc3C3CC3)C4)sc2c1 (stereo partly drawn) [Compound II-1, (2-((1R,5S)-3-((5-cyclopropyl-3-(2-(trifluoromethoxy)phenyl)isoxazol-4-yl)methoxy)-8-azabicyclo[3.2.1]octan-8-yl)-4-fluorobenzo[d]thiazol-6-yl)phosphonic acid] | lower blood glucose level | lowered liver TG levels | significantly reduced | lower relative terminal body weight | 2860 nM | 52% | significant reduction of plasma TG levels | reduced total liver triglycerides than tropifexor | statistically significant reduction of plasma insulin level | lower insulin levels | lower plasma ALT level | lower plasma ALT levels | lower blood glucose level | significantly reduced | similarly decreased | lower relative terminal body weight | greater efficacy in lowering liver TG levels |  | 
3 | CP(=O)(O)c1cc(F)c2nc(N3[C@@H]4CC[C@H]3CC(OCc3c(-c5ccccc5OC(F)(F)F)noc3C3CC3)C4)sc2c1 (stereo partly drawn) [Compound II-2] | lower blood glucose level | lowered liver TG levels | significantly reduced | lower relative terminal body weight | 3080 nM |  | significant reduction of plasma TG levels | reduced total liver triglycerides than tropifexor | statistically significant reduction of plasma insulin level | lower insulin levels | lower plasma ALT level | lower plasma ALT levels | lower blood glucose level | significantly reduced | similarly decreased | lower relative terminal body weight | greater efficacy in lowering liver TG levels | 90% | greater efficacy in lowering plasma TG levels
4 | Oc1cc(-c2cc(F)c3nc(N4[C@@H]5CC[C@H]4CC(OCc4c(-c6ccccc6OC(F)(F)F)noc4C4CC4)C5)sc3c2)on1 (stereo partly drawn) [Compound II-3, 5-(2-((1R,5S)-3-((5-cyclopropyl-3-(2-(trifluoromethoxy)phenyl)isoxazol-4-yl)methoxy)-8-azabicyclo[3.2.1]octan-8-yl)-4-fluorobenzo[d]thiazol-6-yl)isoxazol-3-ol] |  |  |  |  | 24.6 nM | 151% | significant reduction of plasma TG levels | reduced total liver triglycerides than tropifexor | statistically significant reduction of plasma insulin level | lower insulin levels | lower plasma ALT level | lower plasma ALT levels |  |  |  |  |  |  | 
5 | Oc1cc(-c2cc(F)c3nc(N4[C@@H]5CC[C@H]4CC(OCc4c(-c6ccccc6OC(F)(F)F)noc4C4CC4)C5)sc3c2)no1 (stereo partly drawn) [Compound II-4, 3-(2-((1R,5S)-3-((5-cyclopropyl-3-(2-(trifluoromethoxy)phenyl)isoxazol-4-yl)methoxy)-8-azabicyclo[3.2.1]octan-8-yl)-4-fluorobenzo[d]thiazol-6-yl)isoxazol-5-ol] |  |  |  |  | 81.1 nM | 159% | significant reduction of plasma TG levels | reduced total liver triglycerides than tropifexor |  | lower insulin levels | lower plasma ALT level | lower plasma ALT levels |  |  |  |  |  |  | 
